# Measured values published in US6620828B2, “Thiazole compounds and pharmaceutical compositions for inhibiting protein kinases and methods for their use” (Agouron Pharmaceuticals, Inc., priority 1999, dated 2003).
# Assays:
# Format in all cases: biochemical
# [1] = molecular target: T1, phosphorylated VEGF-R2Δ50 (FLVK-P) (Homo sapiens, UniProt P35968, DEL940-989/E990V); test: VEGF-R2 coupled spectrophotometric (FLVK-P) assay; conditions: read-out: VEGF % inhibition at 20 μM, 20 μM; combinatorial library compounds
# T1 construct: VEGF-R2Δ50 contains residues 806-939 and 990-1171; made in house; host or cells: baculovirus/insect cells
# T1 sequence (P35968 with tags, fused parts or gaps DEL940-989/E990V limits assumed): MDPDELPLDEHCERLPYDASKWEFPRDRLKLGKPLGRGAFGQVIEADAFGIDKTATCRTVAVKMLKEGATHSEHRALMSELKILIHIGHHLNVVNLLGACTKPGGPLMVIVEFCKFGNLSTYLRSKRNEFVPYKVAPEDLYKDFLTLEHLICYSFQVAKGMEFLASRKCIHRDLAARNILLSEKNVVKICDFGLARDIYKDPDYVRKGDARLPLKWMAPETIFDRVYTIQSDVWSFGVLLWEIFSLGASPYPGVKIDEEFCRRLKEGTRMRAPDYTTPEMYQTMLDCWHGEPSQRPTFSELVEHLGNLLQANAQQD
# Outline: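 Baculovirus-expressed human VEGF-R2Δ50 (residues 806-939/990-1171, E990V) was autophosphorylated with 3 mM ATP, 40 mM MgCl2 for 2 h at 4° C. ADP formation was coupled via PK/LDH to NADH oxidation, read at 340 nm, with 5.1 mM poly(E4Y1), 1 mM ATP, 25 mM MgCl2, Hepes pH 7.5. Ki came from activity across compound concentrations.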
# FL-CHK1 = molecular target: T2, FL-CHK1 (Homo sapiens, UniProt O14757); test: CHK1 assay; conditions: 20 μM; combinatorial library compounds
# T2 construct: C-terminally His-tagged full-length human CHK1 (FL-CHK1); 6xHis (C); made in house; host or cells: baculovirus/insect cells
# T2 sequence (O14757 1-476): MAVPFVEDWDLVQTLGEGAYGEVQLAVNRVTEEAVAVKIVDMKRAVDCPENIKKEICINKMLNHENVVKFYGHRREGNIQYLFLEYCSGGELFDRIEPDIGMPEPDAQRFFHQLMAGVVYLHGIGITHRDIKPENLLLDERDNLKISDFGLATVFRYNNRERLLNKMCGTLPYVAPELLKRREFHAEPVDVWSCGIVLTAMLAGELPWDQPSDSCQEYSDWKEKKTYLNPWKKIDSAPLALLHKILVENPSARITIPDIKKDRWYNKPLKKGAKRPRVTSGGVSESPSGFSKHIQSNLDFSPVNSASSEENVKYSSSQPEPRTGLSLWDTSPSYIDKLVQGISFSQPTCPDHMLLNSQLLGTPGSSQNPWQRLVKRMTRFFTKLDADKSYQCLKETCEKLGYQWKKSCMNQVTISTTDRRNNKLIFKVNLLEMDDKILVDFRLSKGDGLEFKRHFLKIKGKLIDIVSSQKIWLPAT
# Text: CHK-1 Construct for Assay: C-terminally His-tagged full-length human CHK1 (FL-CHK1) was expressed using the baculovirus/insect cell system. It contains 6 histidine residues (6×His-tag) at the C-terminus of the 476 amino acid human CHK1. The protein was purified by conventional chromatographic techniques.
# The production of ADP from ATP that accompanies phosphoryl transfer to the synthetic substrate peptide Syntide-2 ([…]) was coupled to oxidation of NADH using phosphoenolpyruvate (PEP) through the actions of pyruvate kinase (PK) and lactic dehydrogenase (LDH). The oxidation of NADH was monitored by following the decrease of absorbance at 340 nm (ε340=6.22 cm^−1 mM^−1) using a HP8452 spectrophotometer. Typical reaction solutions contained: […]; 0.15 mM NADH; 28 units of LDH/ml; 16 units of PK/ml; 3 mM DTT; 0.125 mM Syntide-2; 0.15 mM ATP; 25 mM MgCl2 in 50 mM TRIS, pH 7.5; and 400 mM NaCl. Assays were initiated with 10 nM of FL-CHK1. Ki values were determined by measuring initial enzyme activity in the presence of varying concentrations of test compounds. The data were analyzed using Enzyme Kinetic and Kaleidagraph software.
# CDK2/Cyclin A complex = CDK2/Cyclin A complex (Homo sapiens, UniProt P24941); test: CDK2/Cyclin A assay; conditions: for inhibition at 1 µM: combinatorial library compounds
# Text: CDK2/Cyclin A Construct for Assay: CDK2 was purified using published methodology (Rosenblatt et al., J. Mol. Biol., 230, 1317-1319 (1993)) from insect cells that had been infected with a baculovirus expression vector. Cyclin A was purified from E. coli cells expressing full-length recombinant cyclin A, and a truncated cyclin A construct was generated by limited proteolysis and purified as described previously (Jeffrey et al., Nature, 376, 313-320 (Jul. 27, 1995)).
# (§1) CDK2/Cyclin A and CDK4/Cyclin D Assays
# (§2) Cyclin-dependent kinase activity was measured by quantifying the enzyme-catalyzed, time-dependent incorporation of radioactive phosphate from [^32P]ATP into a recombinant fragment of the retinoblastoma protein. Unless noted otherwise, assays were performed in 96-well plates in a total volume of 50 μL, in the presence of 10 mM HEPES (N-[2-hydroxyethyl]piperazine-N′-[2-ethanesulfonic acid]) (pH 7.4), 10 mM MgCl2, 25 μM adenosine triphosphate (ATP), 1 mg/mL ovalbumin, 5 μg/mL leupeptin, 1 mM dithiothreitol, 10 mM β-glycerophosphate, 0.1 mM sodium vanadate, 1 mM sodium fluoride, 2.5 mM ethylene glycol-bis(β-aminoethyl ether)-N,N,N′N′-tetraacetic acid (EGTA), 2% (v/v) dimethylsulfoxide, and 0.03-0.2 μCi [^32P]ATP. The substrate (0.3-0.5 μg) was purified recombinant retinoblastoma protein fragment (Rb) (residues 386-928 of the native retinoblastoma protein; 62.3 kDa, containing the majority of the phosphorylation sites found in the native 106-kDa protein, as well as a tag of six histidine residues for ease of purification). Reactions were initiated with CDK2 (150 nM CDK2/Cyclin A complex) or CDK4 (50 nM CDK4/Cyclin D3 complex), incubated at 30° C., and terminated after 20 minutes by the addition of ethylenediaminetetraacetic acid EDTA) to 250 mM. The phosphorylated substrate was then captured on a nitrocellulose membrane using a 96-well filtration manifold, and unincorporated radioactivity was removed by repeated washing with 0.85% phosphoric acid. Radioactivity was quantified by exposing the dried nitrocellulose membranes to a phosphorimager. Apparent Ki values were measured by assaying enzyme activity in the presence of different compound concentrations and subtracting the background radioactivity measured in the absence of enzyme. The kinetic parameters (kcat, Km for ATP) were measured for each enzyme under the usual assay conditions by determining the dependence of initial rates on ATP concentration. The data were fit to an equation for competitive inhibition using Kaleidagraph (Synergy Software), or were fit to an equation for competitive tight-binding inhibition using the software KineTic (BioKin, Ltd.). Measured Ki values for known inhibitors against CDK4 and CDK2 agreed with published IC50 values. The specific activity of CDK4 was the same whether complexed to full-length cyclin D3 or the truncated Cyclin D3 construct; both complexes also yielded very similar Ki values for selected inhibitors.
# CDK4/Cyclin D3 complex = molecular target: T3, CDK4/Cyclin D3 complex (Homo sapiens, UniProt P11802); test: CDK4/Cyclin D assay; conditions: for inhibition at 1 µM: combinatorial library compounds; for inhibition at 100 µM: at 100 (printed 100 or 100 μM)
# T3 construct: made in house; host or cells: insect cells co-infected with baculovirus vectors
# T3 sequence (P11802 whole entry): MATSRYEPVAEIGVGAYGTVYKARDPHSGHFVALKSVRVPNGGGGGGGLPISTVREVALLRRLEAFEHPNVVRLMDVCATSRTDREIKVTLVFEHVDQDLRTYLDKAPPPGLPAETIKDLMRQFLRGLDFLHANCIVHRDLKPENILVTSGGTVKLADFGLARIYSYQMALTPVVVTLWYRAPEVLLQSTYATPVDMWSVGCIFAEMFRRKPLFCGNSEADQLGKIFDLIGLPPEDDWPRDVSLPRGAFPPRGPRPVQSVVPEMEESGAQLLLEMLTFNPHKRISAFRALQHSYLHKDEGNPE
# T3 sequence (P30281 whole entry partner): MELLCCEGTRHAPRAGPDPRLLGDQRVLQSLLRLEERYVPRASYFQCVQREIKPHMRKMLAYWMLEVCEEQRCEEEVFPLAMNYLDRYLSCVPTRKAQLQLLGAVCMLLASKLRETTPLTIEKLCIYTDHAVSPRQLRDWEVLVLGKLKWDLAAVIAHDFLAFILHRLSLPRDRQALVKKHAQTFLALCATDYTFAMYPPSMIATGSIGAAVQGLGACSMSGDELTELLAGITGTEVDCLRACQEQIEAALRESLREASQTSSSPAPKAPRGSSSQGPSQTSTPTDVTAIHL
# Method: CDK4/Cyclin D Construct for Assay: A complex of human CDK4 and cyclin D3, or a complex of cyclin DI and a fusion protein of human CDK4 and glutathione-S-transferase (GST-CDK4), was purified using traditional biochemical chromatographic techniques from insect cells that had been co-infected with the corresponding baculovirus expression vectors.
# as §1, §2
Compound,inhibition at 20 µM [1] [%],inhibition at 20 µM (FL-CHK1) [%],inhibition at 1 µM (CDK2/Cyclin A complex) [%],inhibition at 1 µM (CDK4/Cyclin D3 complex) [%],Ki (CDK2/Cyclin A complex; Table 2) [nM],also measured
Nc1nc(Nc2ccc(S(N)(=O)=O)cc2)sc1-c1nc(-c2cc(Br)c(Cl)s2)cs1,6,7.9,60.5,56.4,,
COc1cccc(-c2csc(-c3sc(Nc4ccc(S(N)(=O)=O)cc4)nc3N)n2)c1,23,15.2,5.9,-4.2,,
CCOC(=O)c1ccccc1-c1csc(-c2sc(Nc3ccc(S(N)(=O)=O)cc3)nc2N)n1,9,11.4,52.6,53.3,,
Cc1c(C)c(C)c(-c2csc(-c3sc(Nc4ccc(S(N)(=O)=O)cc4)nc3N)n2)c(C)c1C,33,29,77.2,64.1,,
Nc1nc(Nc2ccc(S(N)(=O)=O)cc2)sc1-c1nc(-c2cc(-c3ccccc3)no2)cs1,-1,-1.2,12,-0.5,,
Nc1nc(Nc2ccc(S(N)(=O)=O)cc2)sc1-c1nc(-c2cc(-c3ccc(Cl)c(Cl)c3)no2)cs1,-5,0.5,16.1,-31.3,,
CCCCCc1ccc(-c2csc(-c3sc(Nc4ccc(S(N)(=O)=O)cc4)nc3N)n2)cc1,,10.8,-9.9,-7.2,,
CC(=O)Oc1ccccc1-c1csc(-c2sc(Nc3ccc(S(N)(=O)=O)cc3)nc2N)n1,33,-7.3,25.4,-4.8,,
Nc1nc(Nc2ccc(S(N)(=O)=O)cc2)sc1-c1nc(-c2c(Cl)cc(C(F)(F)F)cc2Cl)cs1,9,21.7,53.9,58,,
CCN(CC)c1ccc(-c2csc(-c3sc(Nc4ccc(S(N)(=O)=O)cc4)nc3N)n2)cc1,10,6.1,34.8,29.3,,
Nc1nc(Nc2ccc(S(N)(=O)=O)cc2)sc1-c1nc(-c2csc3ccccc23)cs1,10,0.4,48.9,44.1,,
"CN(C)CCNS(=O)(=O)c1ccc(Nc2nc(N)c(-c3nc(C(=O)c4ccccc4)cs3)s2)cc1 [A(71), 4-(4′-Amino-4-benzoyl-[2,5′]bithiazolyl-2′-ylamino)-N-(2-dimethylamino-ethyl)-benzenesulfonamide]",,,,,29000,Ki (CDK4/Cyclin D3 complex; Table 2): 190000 nM
"Nc1cccc(C(=O)c2csc(-c3sc(Nc4ccc(S(N)(=O)=O)cc4)nc3N)n2)c1 [A(72), 4-[4-Amino-4-(3-amino-benzoyl)-[2,5′]bithiazoyl-2′-ylamino]-benzenesulfonamide]",,,,,160,inhibition at 5 µM (CDK4/Cyclin D3 complex; Table 2): 48%
Nc1cccc(-c2csc(-c3sc(Nc4ccc(S(N)(=O)=O)cc4)nc3N)n2)c1 [C(3)],,,,,2700,Ki (CDK4/Cyclin D3 complex; Table 2): 4600 nM
"CC(=O)Nc1nc(N)c(-c2nc(C(=O)c3ccccc3)cs2)s1 [F(16), N-(4′-Amino-4-benzoyl-[2,5′]bithiazolyl-2′-yl)-acetamide]",,,,,,Ki (CDK2/Cyclin A complex; Table 3): 480 nM; inhibition at 5 µM (CDK4/Cyclin D3 complex; Table 3): 35%
"Nc1nc(Nc2ccc(S(N)(=O)=O)cc2)sc1C1=NC2(O)OCCC2S1 (stereo not shown) [H(5), 4-[4′-Amino-4-hydroxy-5-(2-hydroxy-ethyl)-3′H-1′-[2,5]bithiazolyl-2′-ylamino]-benzenesulfonamide]",,,,,,"CDK2 % inhibition @ 100 (CDK2/Cyclin A complex; Table 2, at 100 (printed 100 or 100 μM)): 29% @; inhibition at 100 µM (CDK4/Cyclin D3 complex; Table 2): < 0%"
"CN(C)CCNC(=O)c1csc(-c2sc(Nc3ccc(S(N)(=O)=O)cc3)nc2N)n1 [N(2), 4-Amino-2′-(4-sulfamoyl-phenylamino)-[2,5′]-bithiazoyl-4-carboxylic acid (2-dimethylamino-ethyl)-amide]",,,,,,Ki (CDK2/Cyclin A complex; Table 3): 120 nM; Ki (CDK4/Cyclin D3 complex; Table 3): 1300 nM
"Nc1nc(Nc2ccc(S(N)(=O)=O)cc2)sc1-c1nc(C(=O)Nc2ccccc2)cs1 [N(4), 4′-Amino-2′-(4-sulfamoyl-phenylamino)-[2,5′]bithiazolyl-4 carboxylic acid phenylamide]",,,,,,Ki (CDK2/Cyclin A complex; Table 3): 158 nM; Ki (CDK4/Cyclin D3 complex; Table 3): 480 nM

# The next lines start with results.
inhibition at 20 µM [1] [%],inhibition at 20 µM (FL-CHK1) [%],inhibition at 1 µM (CDK2/Cyclin A complex) [%],inhibition at 1 µM (CDK4/Cyclin D3 complex) [%],Ki (CDK2/Cyclin A complex; Table 2) [nM],Compound,also measured
,,,,8800,"Nc1nc(N)c(-c2nc(C(=O)c3ccccc3)cs2)s1 [E(4), (2′,4′-Diamino-[2,5′]bithiazolyl-4-yl)-phenyl-methanone]",Ki (CDK4/Cyclin D3 complex; Table 2): 21000 nM
,,,,18000,"Nc1nc(Nc2ccc(S(N)(=O)=O)cc2)sc1-c1nccn1Cc1ccc(Cl)cc1 [G(8), 4-{4-Amino-5-[1-(4-chloro-benzyl)-1H-imidazol-2-yl]-thiazol-2-ylamino}-benzenesulfonamide]",inhibition at 100 µM (CDK4/Cyclin D3 complex; Table 2): 31%
,,,,10400,"Nc1nc(Nc2ccc(S(N)(=O)=O)cc2)sc1-c1nc(O)c(-c2ccc(O)cc2)s1 [H(2), 4-[4′-Amino-4-hydroxy-5-(4-hydroxy-phenyl)-[2,5′]bithiazolyl-2′-yl-amino]-benzenesulfonamide]",Ki (CDK4/Cyclin D3 complex; Table 2): 11000 nM
,,,,2600,"Nc1nc(Nc2ccc(S(N)(=O)=O)cc2)sc1-c1nc(O)c(-c2ccccc2O)s1 [H(4), 4-[4′-Amino-4-hydroxy-5-(2-hydroxy-phenyl)-[2,5′]bithiazoly-2′-ylamino]-benzenesulfonamide]",Ki (CDK4/Cyclin D3 complex; Table 2): 2100 nM
,,,,200,"Nc1csc(-c2sc(Nc3ccc(S(N)(=O)=O)cc3)nc2N)n1 [H(6), 4-(4,4′-Diamino-[2,5′]bithiazolyl-2′-ylamino)-benzenesulfonamide]",Ki (CDK4/Cyclin D3 complex; Table 2): 1200 nM
